6 compounds from US20070275911A1, “Targeted Drug-Formaldehyde Conjugates and Methods of Making and Using the Same” (priority 2003, published 2007) can be followed below.

For orientation: pIC50 means the IC50 on a negative log10 scale, so that one unit is a factor of ten. High values mean a small IC50, low ones a large IC50.

pIC50: −log10 of the molar value. Like-named read-outs stand apart in the source and are kept apart here.

One series concerns PC3/AR and PC3/neo cells. As to conditions: for intracellular distribution of fluorescence over time: 3 h treatment / over time. As to the method: The fluorescence of doxorubicin can be monitored in order to determine the rate of uptake and intracellular distribution of the anthraquinone fluorophore.
This cell suspension was dispensed in 2 mL aliquots into 6-well tissue culture plates. Plates were then incubated for 36 h at 37° C. in a humidified atmosphere of 5% CO2 and 95% air. The medium was replaced with 1 mL of phenol red-free RPMI 1640 growth medium supplemented with 10% dextran-coated charcoal stripped FBS prior to addition of the test compound. The appropriate compound was dissolved in DMSO and the concentration was adjusted to 50-200 μM by measuring the solution absorbance at 480 nm. Addition of 10 μL of the appropriate doxorubicin or prodrug solution was followed by incubation at 37° C. as indicated. The drug solution in individual wells was removed at the appropriate time and the cells were washed with 1 mL of the phenol red-free growth medium. The washed cells were then supplemented with 1 mL of phenol-red free growth medium for imaging.

Series [1] can be described thus: Hydrolysis of anthracycline-formaldehyde N-Mannich bases followed by HPLC. As to conditions: for stability under AR binding assay conditions: reaction buffer, 30 min incubation at 4° C., HPLC. As to the method: The area under the curve for the N-Mannich base was determined at each time point and was used to establish the kinetics of decomposition, using regression software. Hydrolysis of AOM-doxsaliform was carried out in pH 8.0 100 mM sodium phosphate buffer at 37° C. AOM-doxsaliform was dissolved in 48.0 μL DMSO and this solution was diluted into phosphate buffer to give 4.8 mL of an […] solution containing 1% DMSO. To this solution was added 6 μL of pig liver esterase (0.8 units/μL; Sigma; Milwaukee, Wis.) to achieve a final concentration of 1.0 units/mL. […] Brief centrifugation served to pellet the insoluble fraction. The drug solution was then transferred to a round bottom flask and concentrated by brief rotary-evaporation at 20° C. Reverse phase HPLC was used to analyze the extent of hydrolysis.
Hydrolysis of the N-Mannich bases, prepared from either doxorubicin or daunorubicin and the respective amides, at 37° C. in pH 7.4 triethylammonium acetate (TEAA) buffer (20 mM) containing 10-30% MeOH was monitored by reverse phase HPLC. […] Identification of a less robust construct that could be used to rapidly deliver the active Schiff base metabolite of doxorubicin to a growing tumor was undertaken.

Another series has as its target T1, human AR (Homo sapiens, UniProt P10275).
T1 construct: expressed in transfected cells; host or cells: PC3/AR cells (gift of Dr. Kerry Burnstein, University of Miami); cytosolic fraction of sonicated lysate
T1 sequence (P10275 1-920): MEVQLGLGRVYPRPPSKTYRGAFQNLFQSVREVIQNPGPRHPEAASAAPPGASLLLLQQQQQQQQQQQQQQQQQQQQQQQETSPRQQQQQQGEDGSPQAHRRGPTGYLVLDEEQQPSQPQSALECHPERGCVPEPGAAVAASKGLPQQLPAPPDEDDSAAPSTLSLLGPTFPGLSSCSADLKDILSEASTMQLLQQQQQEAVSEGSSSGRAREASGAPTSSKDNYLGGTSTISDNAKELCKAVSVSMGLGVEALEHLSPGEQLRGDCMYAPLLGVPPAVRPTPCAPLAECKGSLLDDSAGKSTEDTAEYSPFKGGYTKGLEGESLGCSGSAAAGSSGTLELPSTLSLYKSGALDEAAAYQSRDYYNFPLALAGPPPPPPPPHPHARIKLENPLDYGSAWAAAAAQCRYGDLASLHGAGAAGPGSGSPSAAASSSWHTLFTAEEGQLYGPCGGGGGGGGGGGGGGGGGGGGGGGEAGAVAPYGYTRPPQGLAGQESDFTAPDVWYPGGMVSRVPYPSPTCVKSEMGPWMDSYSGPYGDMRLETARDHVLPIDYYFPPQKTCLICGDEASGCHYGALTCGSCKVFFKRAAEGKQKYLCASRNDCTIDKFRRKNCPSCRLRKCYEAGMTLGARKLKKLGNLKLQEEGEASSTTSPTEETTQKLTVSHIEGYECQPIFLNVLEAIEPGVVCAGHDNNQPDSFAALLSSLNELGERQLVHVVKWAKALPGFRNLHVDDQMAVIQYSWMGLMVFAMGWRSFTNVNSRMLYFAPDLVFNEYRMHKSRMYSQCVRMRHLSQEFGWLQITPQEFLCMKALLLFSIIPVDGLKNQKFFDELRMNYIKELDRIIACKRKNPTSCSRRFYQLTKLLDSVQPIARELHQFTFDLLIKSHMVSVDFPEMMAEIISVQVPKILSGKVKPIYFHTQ
The series can be described thus: biochemical. In kind it is binding.

The target in the next series is T2, estrogen receptor (Homo sapiens, UniProt P03372).
T2 construct: endogenous in cells; host or cells: MCF-7 cells (ATCC); 225,000 g supernatant of sonicated lysate
The series can be described thus: Estrogen receptor competitive binding assay (3H-E2, MCF-7 cell lysate). As to conditions: relative to E/Z-4-OHT = 100.

The test system of the next series is AR-GFP receptor. In kind it is cell-based. As to the method: PC3 cells were, therefore, grown in 6 well plates and transiently transfected with a plasmid containing the AR-GFP construct obtained from Dr. Arun Roy (UTHSC; San Antonio, Tex.).
This cell suspension was dispensed in 2 mL aliquots into 6-well tissue culture plates. […] To each solution was added 2 μL of a 800 μg/mL solution of the pEGFP-C2 rcAR plasmid in Millipore water. After gentle mixing, the transfection cocktail was allowed to incubate at room temperature for 40 min. […] The growth medium was again replaced with 1 mL of phenol red-free RPMI supplemented with dextran-coated charcoal-stripped FBS. Candidate AR-GFP expressing cells in each well were identified and marked before an appropriate concentrations of the test compounds were added in 10 μL of sterile DMSO.

Setting [2] is: relative binding affinity (Table 4, Example 3 numbering).

T2 sequence (P03372 whole entry): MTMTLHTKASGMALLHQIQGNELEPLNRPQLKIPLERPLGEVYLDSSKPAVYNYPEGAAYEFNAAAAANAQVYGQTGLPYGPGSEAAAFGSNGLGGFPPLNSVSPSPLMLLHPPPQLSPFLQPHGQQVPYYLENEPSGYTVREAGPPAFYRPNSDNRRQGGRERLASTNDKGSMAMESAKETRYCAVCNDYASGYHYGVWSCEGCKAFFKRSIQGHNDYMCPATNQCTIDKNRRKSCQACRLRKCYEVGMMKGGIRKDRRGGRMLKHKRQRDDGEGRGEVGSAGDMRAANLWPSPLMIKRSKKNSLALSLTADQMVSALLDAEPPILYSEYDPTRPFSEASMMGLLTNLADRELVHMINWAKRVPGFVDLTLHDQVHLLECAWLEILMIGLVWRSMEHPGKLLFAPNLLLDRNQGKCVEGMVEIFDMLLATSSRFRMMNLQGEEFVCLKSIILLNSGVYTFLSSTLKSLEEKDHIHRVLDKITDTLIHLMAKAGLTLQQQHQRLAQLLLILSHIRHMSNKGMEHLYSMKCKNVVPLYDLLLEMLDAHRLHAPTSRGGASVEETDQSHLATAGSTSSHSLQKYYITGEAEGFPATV

Consider `COc1cccc2c1C(=O)c1c(O)c3c(c(O)c1C2=O)C[C@@](O)(C(=O)CO)C[C@@H]3OC1C[C@H](NCNC(=O)c2cc(COCC#CCN3C(=O)N(c4ccc(C#N)c(C(F)(F)F)c4)C(=O)C3(C)C)ccc2O)[C@H](O)[C@H](C)O1` (stereo partly drawn) [compound 13, N-(5-{4-[3-(4-Cyano-3-trifluoromethyl-phenyl)-5,5-dimethyl-2,4-dioxo-imidazolidin-1-yl]-but-2-ynyloxymethyl)-2-hydroxy-benzamidomethyl)-doxorubicin], for which the “intracellular distribution of fluorescence over time” value in the series with PC3/AR and PC3/neo cells is on record as “primarily localized to the nucleus”. Besides, the “stability under AR binding assay conditions” value is on record as “no appreciable hydrolysis” in series [1] and “stable under the assay conditions” in series [1] (listed as 9). Besides, on human AR, the pIC50 is 7.05. Also, the RBA on human AR and on human AR (setting [2]) was 10 each time.

Regarding `COc1cccc2c1C(=O)c1c(O)c3c(c(O)c1C2=O)C[C@@](O)(C(=O)CO)C[C@@H]3O[C@H]1C[C@H](NCNC(=O)c2ccccc2OCOC(C)=O)[C@H](O)[C@H](C)O1` [AOM-doxsaliform, N-[(2-Acetoxymethyloxy)-benzamidomethyl]-doxorubicin], the “intracellular distribution of fluorescence over time” value with PC3/AR and PC3/neo cells is given as “accumulate, at least to some extent over time (>3 h), in the nuclei”. Besides, the “release of doxorubicin from acetoxymethylene-protected derivative” value in series [1] (37° C., pH 7.3 RPMI 1640, 3 h of observation) is given as “no hydrolysis was evident”.

In the case of `CCC(=C(c1ccc(O)cc1)c1ccc(OCCN(C)CCOCCOCCON=Cc2ccc(O)c(C(N)=O)c2)cc1)c1ccccc1` [10c], the “RBA^OHT” value at estrogen receptor is recorded as 3.3.

As for `CCC(=C(c1ccc(O)cc1)c1ccc(OCCN(C)CCOCCON=Cc2ccc(O)c(C(N)=O)c2)cc1)c1ccccc1` [10b, E/Z-2-Hydroxy-5-[(2-{2-[(2-{4-[1-(4-hydroxy-phenyl)-2-phenyl-but-1-enyl]-phenoxy}-ethyl)-methyl-amino]-ethoxy}-ethoxyimino)-methyl]-benzamide], at estrogen receptor, the “RBA^OHT” value is listed as 3.3.

In the case of `CCC(=C(c1ccc(O)cc1)c1ccc(OCCN(C)CCON=Cc2ccc(O)c(C(N)=O)c2)cc1)c1ccccc1` [10a], on estrogen receptor, the “RBA^OHT” value is given as 1.7.

Take `CCCC(=O)OCOc1ccc(COCC#CCN2C(=O)N(c3ccc(C#N)c(C(F)(F)F)c3)C(=O)C2(C)C)cc1C(=O)NCNC1CC(OC2CC(O)(C(=O)CO)Cc3c(O)c4c(c(O)c32)C(=O)c2c(OC)cccc2C4=O)OC(C)C1O` (stereo not drawn) [compound 10, N-(5-{4-[3-(4-Cyano-3-trifluoromethyl-phenyl)-5,5-dimethyl-2,4-dioxo-imidazolidin-1-yl]-but-2-ynyloxymethyl}-2-butyryloxymethoxybenzamidomethyl)-doxorubicin]: the “intracellular distribution of fluorescence over time” value in the series with PC3/AR and PC3/neo cells is listed as “remains primarily cytosolic over time”. The “initial intracellular distribution of fluorescence” value with PC3/AR and PC3/neo cells (upon initial treatment, 500 nM) is “predominantly cytosolic”. For the same compound, the “nuclear translocation of AR-GFP” value in the series on AR-GFP receptor (1.0 μM (up to)) is recorded as “did not instigate translocation into the nucleus”. Besides, in the series on AR-GFP receptor (co-treatment with 1.0 nM Mibolerone), the “inhibition of the action of 1.0 nM Mibolerone on AR-GFP” value was “did serve to inhibit the action of 1.0 nM Mibolerone”. In series [1], the “stability under AR binding assay conditions” value is on record as “stable under the assay conditions”. On human AR (setting [2]), the RBA was 14. Moreover, the pIC50 on human AR (vs 1.0 nM 3H-Mibolerone, PC3/AR cell lysate, 4° C. (Table 4, Example 3 numbering)) was 7.20.
